Measured values: US20260373266A1, “PROTEIN DEGRADERS AND USES THEREOF” (KYMERA THERAPEUTICS, INC., priority 2022, published 2026)
Read-outs that look alike come from different tables or passages of the source.

Target: T1, DCAF1 WD40 domain (residues 1077-1390) (Homo sapiens, UniProt Q9Y4B6)
T1 construct: DCAF1 WD40 domain (residues 1077-1390)
Assay: DCAF1 binding assay by SPR (Biacore 8K+), DCAF1-3 KD
Conditions: 25 °C

T1 sequence (Q9Y4B6 1077-1390): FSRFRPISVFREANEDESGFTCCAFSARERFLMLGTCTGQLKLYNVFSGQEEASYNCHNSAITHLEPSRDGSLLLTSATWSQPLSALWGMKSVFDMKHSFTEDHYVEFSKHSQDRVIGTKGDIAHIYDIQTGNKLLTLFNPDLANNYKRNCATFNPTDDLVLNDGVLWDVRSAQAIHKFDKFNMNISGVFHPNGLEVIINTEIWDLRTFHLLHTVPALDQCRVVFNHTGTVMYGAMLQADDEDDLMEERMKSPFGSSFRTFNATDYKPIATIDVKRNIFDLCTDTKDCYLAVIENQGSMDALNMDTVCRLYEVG

| SMILES | Kd (read-out: DCAF1-3 SPR (KD)) [µM] | Kd (DCAF1-3 SPR (KD)) [µM] |
| --- | --- | --- |
| c1cc(N2CCC[C@@H](Nc3nccc(N4CCOCC4)n3)C2)c2cccnc2c1 [I-53] | 100 to 200 |  |
| O=C(O)CCN(c1cc(N2CCOCC2)ccn1)[C@@H]1CCCN(c2cccc(F)c2)C1 [I-288] | > 200 |  |
| c1cc(N2CCOCC2)cc(N[C@@H]2CCCN(c3ccc(OCCN4CCCC4)nc3)C2)n1 [I-677] | 10 to 100 |  |
| Fc1cccc([C@@H]2CCC[C@@H](Nc3cc(N4CCOCC4)ncn3)C2)c1 [I-183] | > 200 |  |
| Cc1c(F)ccc(F)c1-c1c(C(=O)N[C@@H](CC(N)=O)c2cccc(Cl)c2)cn(C(C)C)c1C#N [I-976] | < 10 |  |
| NC(=O)C[C@H](N/C(=N\O)c1cn[nH]c1-c1ccccc1F)c1cccc(Cl)c1 [I-162] | > 200 |  |
| Cc1cc(CCCOCCOCCOCCOCCOCCN)cc(F)c1-c1c(C(=O)N[C@@H](CC(N)=O)c2cccc(Cl)c2)c[nH]c1C#N [I-918] | < 10 |  |
| NC(=O)c1ccc(N2CCC[C@@H](Nc3cc(N4CCOCC4)ccn3)C2)cc1 [I-769] | > 200 |  |
| C=CC(=O)N1CCC(N(C)c2ccnc(N[C@@H]3CCCN(c4cccc(F)c4)C3)c2)C1 (stereo partly drawn) [I-458] | > 200 |  |
| NC(=O)C[C@](CC1CC1)(NC(=O)c1c[nH]nc1-c1ccccc1F)c1cccc(Cl)c1 [I-255] | > 200 |  |
| C=CC(=O)N1CCC[C@H](N(C)c2ccnc(N[C@@H]3CCCN(c4cccc(F)c4)C3)c2)C1 [I-481] | > 200 |  |
| O[C@@H]1CC[C@@H](Nc2cc(N3CCCCC3)ccn2)C[C@H]1c1ccccc1 [I-985] | 10 to 100 |  |
| Fc1cccc(N2C[C@H](F)C[C@@H](Nc3cc(N4CCOCC4)ncn3)C2)c1 [I-135] | > 200 |  |
| Cc1sc2c(c1C)C(c1ccc(Cl)cc1)=N[C@@H](CC(=O)NCCCCCCCCCCCCCCCCCC(=O)c1[nH]cc(C(=O)N[C@@H](CC(N)=O)c3cccc(Cl)c3)c1-c1ccccc1F)c1nnc(C)n1-2 [I-893] | > 200 |  |
| Fc1cccc(N2CCC[C@@H](Nc3cc(N4CCCCCC4)ccn3)C2)c1 [I-597] | < 10 |  |
| Cc1cc(Cl)cc([C@H](CC(N)=O)NC(=O)c2cn[nH]c2-c2c(C)cccc2F)c1 [I-737] | > 200 |  |
| Cc1sc2c(c1C)C(c1ccc(Cl)cc1)=N[C@@H](CC(=O)NCCOCCOCCOCCOCCCc1ccc(C(=O)c3[nH]cc(C(=O)N[C@@H](CC(=O)N4CCNCC4)c4cccc(Cl)c4)c3-c3c(F)ccc(F)c3C)cc1)c1nnc(C)n1-2 [I-913] | < 10 |  |
| NC(=O)C[C@H](NC(=O)c1cn[nH]c1[C@H]1CCCOC1)c1cccc(Cl)c1 [I-345] | > 200 |  |
| Fc1cccc(N2CCC[C@@H](Nc3cc(N4CCOCC4)ccn3)C2)c1 [I-29, (R)—N—(I-(3-fluorophenyl)piperidin-3-yl)-4-morpholinopyridin-2-amine] |  | 10 to 100 |

| SMILES | Kd (read-out: DCAF1-3 SPR (KD)) [µM] | Kd (DCAF1-3 SPR (KD)) [µM] |
| --- | --- | --- |
| c1cnc2c(N3CCC[C@@H](Nc4cc(N5CCOCC5)ncn4)C3)cccc2c1 [I-396] | > 200 |  |
| C=CC(=O)n1ccc(-c2n[nH]cc2C(=O)N[C@@H](CC(N)=O)c2cccc(Cl)c2)n1 [I-468] | > 200 |  |
| C[C@@H]1C[C@@H](Nc2cc(N3CCOCC3)ncn2)CN(c2cccc(F)c2)C1 [I-177] | > 200 |  |
| Cc1c(F)ccc(F)c1-c1c(C(=O)N[C@@H](CC(N)=O)c2cccc(Cl)c2)cn(C)c1C(=O)c1ccc(OCCOCCOCCOCCOCCOCCOCCN)cc1 [I-1015] | < 10 |  |
| COC(=O)c1ccc(F)c(-c2n[nH]cc2C(=O)N[C@@H](CC(N)=O)c2cccc(Cl)c2)c1 [I-270] | > 200 |  |
| Cc1c(F)ccc(F)c1-c1[nH]ncc1C(=O)N[C@@H](c1cccc(Cl)c1)[C@H]1CCOC1 [I-965] | 100 to 200 |  |
| C=CC(=O)NCCC1CCN(c2ccnc(N3CC[C@H]4[C@@H]3CCCN4c3cccc(F)c3)c2)CC1 [I-672] | < 10 |  |
| Fc1cccc(N2CCC[C@@H]3[C@H]2CCN3c2cc(N3CC4CC(C4)C3)ccn2)c1 [I-623] | < 10 |  |
| OC[C@H]1C[C@H](Nc2cc(N3CCCCC3)ccn2)CN(c2cccc(F)c2)C1 [I-1012] | 10 to 100 |  |
| CC(C)c1cccc(-c2[nH]ncc2C(=O)N[C@@H](CC(N)=O)c2cccc(Cl)c2)c1 [I-525] | 10 to 100 |  |
| Fc1cccc(N2CCC[C@@H](Nc3cc(N4C5CCCC4C5)ccn3)C2)c1 [I-616] | < 10 |  |
| Cc1sc2c(c1C)C(c1ccc(Cl)cc1)=N[C@@H](CC(=O)NCCOCCOCCOCCOCCn1ncc(C(=O)N[C@@H](CC(N)=O)c3cccc(Cl)c3)c1-c1ccccc1F)c1nnc(C)n1-2 [I-491] | > 200 |  |
| Fc1cccc(N2CCC[C@H](Nc3cc(N4CCOCC4)ccn3)C2)c1 [I-499] | 10 to 100 |  |
| NC(=O)C[C@H](NC(=O)c1nc(N)[nH]c1-c1ccccc1F)c1cccc(Cl)c1 [I-220] | > 200 |  |
| C[C@@H]1[C@H](O)CCCN1c1ccnc(N2CC[C@@H]3[C@H]2CCCN3c2cccc(F)c2)c1 [I-832] | < 10 |  |
| COCCOCCOCC[C@H]1CN(c2cc(N3CCCCC3)ccn2)[C@@H]2CCCN(c3cccc(F)c3)[C@H]12 [I-951] | < 10 |  |
| Fc1cccc(N2CCC[C@@H](Nc3cccc(N4CCOCC4)c3)C2)c1 [I-380] | > 200 |  |
| NS(=O)(=O)CCc1cccc(N2CCC[C@H]3[C@@H]2CCN3c2cc(N3CCCCC3)ccn2)c1 [I-964] | < 10 |  |
| C=CC(=O)Nc1ccc2c(C(=O)N[C@@H](CC(N)=O)c3cccc(Cl)c3)n[nH]c2c1 [I-301] | > 200 |  |

| SMILES | Kd (read-out: DCAF1-3 SPR (KD)) [µM] | Kd (DCAF1-3 SPR (KD)) [µM] |
| --- | --- | --- |
| COCCN(c1cc(N2CCOCC2)ccn1)[C@@H]1CCCN(c2cccc(F)c2)C1 [I-76] | 10 to 100 |  |
| OCCC[C@H]1C[C@@H]2[C@H](CCCN2c2cccc(F)c2)N1c1cc(N2CCCCC2)ccn1 [I-826] | 10 to 100 |  |
| Fc1ccc(N2CCC[C@@H](Nc3cc(N4CCOCC4)ncn3)C2)cc1 [I-7] | 100 to 200 |  |
| O=C(CC1CN(C(=O)N2CCC=C(F)C2)CCO1)Nc1ccccn1 (stereo not drawn) [I-86] | > 200 |  |
| NC(=O)C[C@H](NC(=O)c1cn[nH]c1CC1CCCCC1)c1cccc(Cl)c1 [I-582] | < 10 |  |
| CC(C)Oc1cncc(N2CCC[C@@H](Nc3cc(N4CCOCC4)ccn3)C2)c1 [I-433] | 100 to 200 |  |
| Cc1sc2c(c1C)C(c1ccc(Cl)cc1)=N[C@@H](CC(=O)NCCCCCCCCCCCCCCCCCCCCC(=O)c1[nH]cc(C(=O)N[C@@H](CC(N)=O)c3cccc(Cl)c3)c1-c1ccccc1F)c1nnc(C)n1-2 [I-894] | > 200 |  |
| CC(=O)Nc1cccnc1N1CCC[C@@H](Nc2cc(N3CCOCC3)ccn2)C1 [I-430] | > 200 |  |
| c1ccc2c(N3CCC[C@@H](n4ccc(N5CCOCC5)c5ccnc4-5)C3)nccc2c1 [I-367] | > 200 |  |
| C[C@H]1CCCN(c2ccnc(N[C@@H]3CCCN(c4cccc(F)c4)C3)c2)C1 [I-570] | 10 to 100 |  |
| COc1cccc(N2CCC[C@@H](Nc3cc(N4CCOCC4)ncn3)C2)c1 [I-9] | 100 to 200 |  |
| Fc1cccc(N2CCC[C@@H](n3cnc4nccc(N5CCOCC5)c43)C2)c1 [I-494] | > 200 |  |
| OC[C@@H]1CC[C@@H](Nc2cc(N3CCCCC3)ccn2)CN1c1cccc(F)c1 [I-995] | 10 to 100 |  |
| Fc1cccc(N2CCC[C@@H](Nc3cc(N4C[C@H]5C[C@@H]4CO5)ncn3)C2)c1 [I-310] | > 200 |  |
| NC(=O)N1Cc2ccc(N3CCC[C@@H]4[C@H]3CCN4c3cc(N4CCCCC4)ccn3)cc2C1 [I-957] | 10 to 100 |  |
| Fc1cccc(N2CC(Nc3cc(N4CCOCC4)ccn3)C2)c1 [I-199] | > 200 |  |
| OCCC[C@@H]1C[C@H]2[C@@H](CCCN2c2cccc(F)c2)N1c1cc(N2CCCCC2)ccn1 [I-831] | 10 to 100 |  |
| NC(=O)C[C@H](NC(=O)c1c(-c2ccccc2F)cc[nH]c1=O)c1cccc(Cl)c1 [I-216] | > 200 |  |
| COc1ccc(-c2ccncc2)cc1N1CCC[C@@H](Nc2cc(N3CCOCC3)ccn2)C1 [I-698] | 10 to 100 |  |
